Laboratory results published in US20140335019A1, “COMPOSITIONS AND METHODS FOR THE TREATMENT AND ANALYSIS OF NEUROLOGICAL DISORDERS” (THE REGENTS OF THE UNIVERSITY OF MICHIGAN, priority 2011, published 2014).
Entries after “also recorded” stand apart in the source; their conditions may differ.

What was measured:
[1] = in vivo biodistribution of radiolabeled compound; parameters: species or system C57B1/6 mice
Description: Healthy female C57B1/6 mice (n=18) were administered by bolus intravenous injection with [^3H]-3b (2.5 μCi) each. The mice were divided into 3 groups of 6. Each group was sacrificed at 10 min, 60 min and 120 min post injection. Biodistribution was carried out by harvesting blood from cardiac puncture and tissue (liver, heart, kidneys, lungs, small intestine, muscle, spleen, feces, bladder, bone and brain). The brain was divided into four different sections (cerebellum, frontal cortex, parietal cortex and striatum). The tissue was digested and counted for accumulated activity.

[2] = solution speciation by UV-vis variable-pH titrations; type: physicochemical; settings: physiological pH (ca. 7.4)
[3] = target: Aβ monomer pretreated with ZnCl2 (Homo sapiens, UniProt P05067); experiment: NMR studies of compound with Aβ monomer pretreated with ZnCl2; type: binding
Sequence of Aβ monomer pretreated with ZnCl2 (P05067 672-711 limits assumed): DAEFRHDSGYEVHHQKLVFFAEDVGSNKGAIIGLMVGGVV
Excerpt: (§1) While an understanding of the mechanism is not necessary to practice the invention and the invention is not limited to any particular mechanism of action, these observations imply that the compounds may target metal ions associated with Aβ species.

[4] = target: Aβ aggregates (Homo sapiens, UniProt P05067); experiment: ELISA of interaction with Aβ aggregates; type: binding; settings: similar to ThT
Sequence of Aβ aggregates (P05067 672-711 limits assumed): as above
Excerpt: as §1

[5] = test system: Aβ species in human AD brain tissue homogenates; experiment: treatment of human AD brain tissue homogenates, Western blotting with 6E10; type: biochemical; settings: 24 h treatment, frontal cortex homogenates
Excerpt: The frontal cortex section of the human AD brain was selected because it generally contains high amounts of Aβ aggregates. […] Also, using these compounds, similar to in vitro disaggregation studies with synthetic Aβ peptide above, perturbing metal-Aβ interaction is contemplated to find use for disassembling Aβ aggregates in brain tissue.

[6] = test system: M17 cells; experiment: cytotoxicity of metal (CuII or ZnII)-associated Aβ species with compounds, MTT assay; type: cell-based, human; settings: Aβ 20 μM, metal ions 20 μM, compound 40 μM, 24 h
Description: Then, the cells were incubated for 24 h.
(§2) Preliminary cytotoxicity studies of the compounds in human SK-N-BE(2)-M17 (M17) neuroblastoma cells were carried out using a standard colorimetric assay for measuring cell growth (i.e., MTT assay; MTT=3-(4,5-dimethylthiazol-2-yl)-2,5-diphenyltetrazolium bromide).

[7] = test system: Tg2576 hAPP-transgenic mice; experiment: in vivo activity in Tg2576 hAPP-transgenic mice (4G8 and Congo red staining of brain slices); settings: 1 mg/kg oral gavage every two days for two months; relative to control vehicle; p<0.01
Description: During the development of embodiments of the technology provided herein, experiments were conducted to verify the efficacy of pharmaceutical compositions according to the technology by testing in a murine model. Pharmaceutical compositions comprising compounds described herein were administered every two days at 1 mg/kg (0.1 ml/10 g body weight) to four female Tg2576 hAPP-transgenic mice (18 months old) for two months (total 30 times in 60 days) by oral gavage.
Efficacy was evaluated after drug administration. Tissue slices […] long were prepared from cerebrums of Tg2576 mice by a procedure comprising rapid freezing and cutting using a cryostat. To verify the degree of amyloid beta accumulation, the brain tissue slices were stained by APP/Aβ17-24-immunospecific antibody 4G8. In addition, to identify the amount of mature amyloid plaques that were generated in the presence of Apolipoprotein E (ApoE), sample were stained with Congo red.

[8] = test system: human SK-N-BE(2)-M17 (M17) neuroblastoma cells; settings: for concentration with no toxicity: human, 24 h
Description: as §2

[9] = test system: Aβ species; settings: cited from earlier work

SMILES: CN(C)c1ccc(NCc2ccccn2)cc1 [[^3H]-3b]
- BBB crossing ([1]; bolus intravenous injection, 2.5 μCi, 10, 60 and 120 min post injection): can cross the BBB
- brain uptake ([1]; cerebellum, frontal cortex, parietal cortex, striatum, 10, 60, 120 min): relatively consistent within the time points chosen

SMILES: CN(C)c1ccc(NCc2ccccn2)cc1 [3b, N^1,N^1-Dimethyl-N^4-(pyridin-2-ylmethyl)benzene-1,4-diamine]
- main species in solution [2]: neutral form
- complex formation with ZnII-pretreated Aβ monomer [3]: a ternary complex containing Aβ, ZnII, and the molecule may be generated
- interaction with Aβ aggregates (ELISA) [4]: interacted with Aβ aggregates
- Aβ species visualized by Western blotting with 6E10 [5]: more gel-permeable and lower MW Aβ species
- toxicity induced by metal-Aβ [6]: capable of reducing metal-Aβ neurotoxicity; also recorded: noticeably diminished toxicity
- Aβ immunoreactivity (4G8 staining) [7]: reduced
- congophilicity (Congo red staining) [7]: reduced
- concentration with no toxicity [8]: up to 40 μM

SMILES: CN(C)c1ccc(N=Cc2ccccn2)cc1 [2b, N^1,N^1-dimethyl-N^4-(pyridin-2-ylmethylene)benzene-1,4-diamine]
- cytotoxicity compared with CQ [8]: less cytotoxic than CQ
- concentration with no toxicity [8]: up to 100 μM

SMILES: CN(C)c1ccc(/C=C/c2ccc(I)cc2)cc1 [p-1-stilbene, (E)-4-(4-iodostyryl)-N,N-dimethylaniline]
- binding affinity to Aβ species [9]: strong binding affinity

SMILES: CN(C)c1ccc(-c2cn3cc(I)ccc3n2)cc1 [IMPY, 4-(6-iodoimidazo[1,2-α]pyridin-2-yl)-N,N-dimethylaniline]
- binding affinity to Aβ species [9]: strong binding affinity
